# Laboratory results as given in patent publication US20110046224A1, “METHODS TO ACCELERATE MUSCLE DEVELOPMENT, DECREASE FAT DEPOSITS, AND ENHANCE FEEDING EFFICIENCY IN PIGS” (BIOKAB, S.A. de C.V., priority 2009, published 2011).
# How the values were obtained:
# pigs for meat supply [1] = experiment: Carcass quality of pigs fed supplemented food (body fat and lean efficiency estimated in vivo with Piglot 105); design: species or system York-Landrace (YL) x Duroc (DC); conditions: for Average fat / LEAN EFFICIENCY: at approx. 100 kg, mean and standard deviation
# Source text: (§1) 30 pigs were used, 15 castrated males and 15 females obtained from a terminal breeding York-Landrace (YL)×Duroc (DC); at the beginning of the study, said pigs weighted 77.83±1.20 Kg and were approximately 18 weeks old. Pigs were kept in individual pens, and were randomly distributed to 3 treatments, with ten repetitions per treatment. Treatments were: a positive control, including 5 ppm of commercial ractopamine; a second treatment including 12 ppm of pure ferulic acid and a third treatment containing 15 ppm of substantially pure ferulic acid per ton of food. Pigs were weighted every seven days, studying the following variables: initial weight, weekly weight, and final weight of the pigs; daily food intake. This was used to estimate the daily, weekly and term weight gain, as well as food efficiency. When reaching the approximate weight of 100 kg, animals were evaluated in vivo (using Piglot 105, SFK-Technology, Netherlands) in order to estimate the amount of body fat and lean efficiency. Results were evaluated randomly, using SAS general linear models procedures.
# pigs for meat supply [2] = experiment: Production characteristics of finishing pigs fed supplemented food (weight, weight gain, food intake, food conversion); assay type: in vivo, York-Landrace (YL) x Duroc (DC); conditions: supplemented pigs vs untreated control group
# pigs for meat supply [3] = experiment: as above; assay type: in vivo, York-Landrace (YL) x Duroc (DC); conditions: for DAILY GAIN / WEIGHT GAIN / FINAL WEIGHT / AVERAGE INTAKE / TOTAL INTAKE: mean and standard deviation; for AVERAGE INTAKE: daily average food intake; for CONVERSION: food conversion; for TOTAL INTAKE: food intake
# Source text: as §1
structure (smiles),measurement,setting,value
COc1cc(/C=C/C(=O)O)ccc1O [ferulic acid],amount of dorsal fat (in words),pigs for meat supply [1]; pigs fed with 15 ppm,lower amount of dorsal fat
same,lean efficiency (in words),pigs for meat supply [1]; pigs fed with 15 ppm,better lean efficiency
same,intake of total food and daily average compared to the control group (untreated),pigs for meat supply [2],lower intake
"COc1cc(/C=C/C(=O)O)ccc1O [Pure ferulic acid, trans-4-hydroxy-3-methoxy cinnamic acid]",DAILY GAIN,pigs for meat supply [3]; 12 ppm in food,0.873 ± .20 kg
same,WEIGHT GAIN,pigs for meat supply [3]; 12 ppm in food,24.45 ± 5.64 kg
same,FINAL WEIGHT,"pigs for meat supply [3]; 12 ppm pure ferulic acid in food, start 79.4 Kg",103.85 ± 7.63 kg
same,AVERAGE INTAKE,pigs for meat supply [3]; 12 ppm in food,2.34 ± .40 kg
same,CONVERSION,pigs for meat supply [3]; 12 ppm in food,2.68
same,TOTAL INTAKE,pigs for meat supply [3]; 12 ppm in food,81.75 ± 14.00 kg
same,CARCASS EFFICIENCY,pigs for meat supply [1]; 12 ppm in food,88.01%
same,EFFICIENCY IN CUTS,pigs for meat supply [1]; 12 ppm in food,49.66%
same,Average fat,pigs for meat supply [1]; 12 ppm in food,13.5 ± 3.58 mm
same,LEAN EFFICIENCY,pigs for meat supply [1]; 12 ppm in food,56.24 ± 3.58%
"CC(CCc1ccc(O)cc1)NCC(O)c1ccc(O)cc1 (stereo not shown) [Ractopamine, ractopamine, reference compound]",FINAL WEIGHT,"pigs for meat supply [3]; 5 ppm commercial ractopamine in food, start 77.33 Kg",105.28 ± 4.98 kg
same,DAILY GAIN,pigs for meat supply [3]; 5 ppm in food,1.00 ± .08 kg
same,WEIGHT GAIN,pigs for meat supply [3]; 5 ppm in food,27.94 ± 3.20 kg
same,AVERAGE INTAKE,pigs for meat supply [3]; 5 ppm in food,2.35 ± .33 kg
same,CONVERSION,pigs for meat supply [3]; 5 ppm in food,2.32
same,TOTAL INTAKE,pigs for meat supply [3]; 5 ppm in food,82.33 ± 11.31 kg
same,CARCASS EFFICIENCY,pigs for meat supply [1]; 5 ppm in food,87.08%
same,EFFICIENCY IN CUTS,pigs for meat supply [1]; 5 ppm in food,51.69%
same,Average fat,pigs for meat supply [1]; 5 ppm in food,9.67 ± 1.11 mm
same,LEAN EFFICIENCY,pigs for meat supply [1]; 5 ppm in food,58.98 ± 2.20%
same,intake of total food and daily average compared to the control group (untreated),pigs for meat supply [2],lower intake
"COc1cc(/C=C/C(=O)O)ccc1O [Substantially pure ferulic acid, trans-ferulic acid]",DAILY GAIN,pigs for meat supply [3]; 15 ppm in food,1.04 ± .20 kg
same,WEIGHT GAIN,pigs for meat supply [3]; 15 ppm in food,29.25 ± 5.70 kg
same,FINAL WEIGHT,"pigs for meat supply [3]; 15 ppm substantially pure ferulic acid in food, start 78.2 Kg",107.47 ± 6.84 kg
same,AVERAGE INTAKE,pigs for meat supply [3]; 15 ppm in food,2.30 ± .26 kg
same,CONVERSION,pigs for meat supply [3]; 15 ppm in food,2.21
same,TOTAL INTAKE,pigs for meat supply [3]; 15 ppm in food,80.57 ± 8.13 kg
same,CARCASS EFFICIENCY,pigs for meat supply [1]; 15 ppm in food,89.26%
same,EFFICIENCY IN CUTS,pigs for meat supply [1]; 15 ppm in food,50.88%
same,Average fat,pigs for meat supply [1]; 15 ppm in food,9.60 ± .34 mm
same,LEAN EFFICIENCY,pigs for meat supply [1]; 15 ppm in food,59.66 ± 3.14%
